The target of the experiment is T1, hyaluronidase type I-S from bovine testes (BTH; Hyal) (Bos taurus, UniProt Q2YDK3).
T1 construct: gene SPAM1; commercial unlabeled enzyme from bovine testes
T1 sequence (Q2YDK3 36-553): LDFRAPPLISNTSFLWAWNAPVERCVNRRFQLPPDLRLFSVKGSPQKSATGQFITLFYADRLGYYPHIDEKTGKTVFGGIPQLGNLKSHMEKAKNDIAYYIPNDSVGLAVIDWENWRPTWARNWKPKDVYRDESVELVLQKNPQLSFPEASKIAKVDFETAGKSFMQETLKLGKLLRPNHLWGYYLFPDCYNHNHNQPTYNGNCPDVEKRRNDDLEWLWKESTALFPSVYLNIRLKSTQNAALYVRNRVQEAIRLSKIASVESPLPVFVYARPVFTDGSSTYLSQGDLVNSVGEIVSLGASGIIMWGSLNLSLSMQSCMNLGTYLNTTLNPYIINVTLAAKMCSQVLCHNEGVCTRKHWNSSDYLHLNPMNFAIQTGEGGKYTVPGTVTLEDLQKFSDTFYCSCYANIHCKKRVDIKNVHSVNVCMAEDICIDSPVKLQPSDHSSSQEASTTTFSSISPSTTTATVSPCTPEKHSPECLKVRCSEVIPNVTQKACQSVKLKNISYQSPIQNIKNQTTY
The experiment in a line: CE-UV enzymatic assay of hyaluronic acid degradation; inhibition at […] without trehalose ([…] with […] trehalose). It is filed as biochemical. The settings on record: read-out: Inhibition at 1 mg/mL-Equation (1) / 0% Trehalose.

`O=c1cc(-c2ccc(O)cc2)oc2cc(O[C@@H]3O[C@H](CO)[C@@H](O)[C@H](O)[C@H]3O)cc(O)c12` [apigenin-7-glucoside]: the inhibition at 1000 µg/mL came out at 25 ± 5%.

The record behind these values is PMC12525580, “Impacts of Tween-20, Glycerol, and Trehalose on Hyaluronidase Activity: Insights from Microscale Thermophoresis and Capillary Electrophoresis” (Molecules, 2025).
